# Data taken from patent USRE47428E1, “Modulators of methyl modifying enzymes, compositions and uses thereof” (Constellation Pharmaceuticals, Inc., priority 2013, dated 2019).
# Read-outs that look alike come from different tables or passages of the source.
# How the values were obtained:
# [1] = system: H3K27me3 mark in HeLa cells; assay: H3K27me3 Alpha Hela Assay (AlphaLISA); type: cell-based; settings: 72 hrs incubation
# Protocol: H3K27me3 Alpha Hela Assay (AlphaLISA).
# Ten different doses of each test compound (in a series of 3-fold dilutions) were plated in duplicate 384-well tissue culture treated plates (Catalog #781080; Greiner Bio One; Monroe, N.C.). Hela cells grown in culture were trypsinized and counted using a Countess® cell counter (Catalog #C10281; Life Technologies, Grand Island, N.Y.). Cell were diluted to 67,000 cells per mL in 10% DMEM (Catalog #10569-010 Life Technologies, Grand Island, N.Y.) and 15 μL (1,000 cells) were plated into each well using the Biotek MicroFlo™ Select Dispenser (BioTek Instruments, Inc. Vermont, USA),) of the 384-well plate. Plates were incubated at 37° C./5% CO2 for 72 hrs. One of the duplicate plates was processed for HeLa assay and the other for viability.
# To the plate processed for AlphaLISA was added 5 μL per well Cell-Histone Lysis buffer (1×) (Catalog #AL009F1 Perkin Elmer; Waltham, Mass.) and the plate was incubated at RT for 30 minutes on a plate shaker with low speed (Model #4625-Q Thermo Scientific; Waltham, Mass.). Then, 10 μL per well Histone Extraction buffer (catalog #AL009F2; Perkin Elmer; Waltham, Mass.) was added and the plate further incubated at RT for 20 min on plate shaker with low speed. To each well was then added 10 μL per well of a 5× mix of anti-K27me3 acceptor beads plus Biotinylated anti-Histone H3 (C-ter) Antibody (diluted to 3 nM final) (Catalog #AL118 Perkin Elmer; Waltham, Mass.). Dilution of the acceptor beads and then anti-Histone H3 was with 1× Histone Detection buffer (Catalog #AL009F3 Perkin Elmer; Waltham, Mass.) which was produced diluted from the 10× stock provided. The plate was sealed with an aluminum plate sealer and incubated at 23° C. for 60 min. […] The plates were then read using an EnVision-Alpha Reader (model #2104 Perkin Elmer; Waltham, Mass.).
# Data from both assays was analyzed using Assay Assistant (Constellation Pharmaceuticals In-house product) and Activity Base (IDBS Ltd, Surrey, UK) template. […] Readout of DMSO wells were used to normalize the data. […]
# EZH2 = EZH2 (Homo sapiens, UniProt Q15910); assay: EZH2 assay: rPRC2 methyltransferase, 3H SAM FlashPlate; type: biochemical; settings: 0.2 μM 3H SAM, 2 nM EZH2
# Protocol: (§1) Assays were carried out by mixing rPRC2 together with biotinylated oligonucleosome substrates in the presence of the radio-labeled enzyme co-factor, S-adenosyl-L-methionine (^3H SAM) (Perkin Elmer) and monitoring the enzymatically mediated transfer of tritiated methyl groups from ^3H SAM to histone lysine residues. The amount of resulting tritiated methyl histone product was measured by first capturing the biotinylated oligonucleosomes in streptavidin (SAV) coated FlashPlates (Perkin Elmer), followed by a wash step to remove un-reacted ^3H SAM, and then counting on a TopCount NXT 384 well plate scintillation counter (Perkin Elmer). The final assay conditions for EZH2 were as follows: 50 mM Tris Buffer pH 8.5, 1 mM DTT, 69 μM Brij-35 detergent, 5.0 mM MgCl2, 0.1 mg/mL BSA, 0.2 μM ^3H SAM, 0.2 μM biotinylated oligonucleosomes, 3.6 μM H3K27me3 peptide and 2 nM EZH2.
# (§2) A 12.5 μL volume of the HMT enzyme, H3K27me3 peptide and oligonucleosome substrate in assay buffer was added to each well of the assay plate using a Multidrop Combi (Thermo-Fisher). Compounds were pre-incubated with the enzyme for 20 min, followed by initiation of the methyltransferase reaction by addition of 12.5 μL of ^3H SAM in assay buffer (final volume=25 μL). The final concentrations of compounds ranged from a top default concentration of 80 μM down to 0.16 μM in ten 2-fold dilution steps. Reactions were carried out for 60 minutes and quenched with 20 μL per well of 1.96 mM SAH, 50 mM Tris pH 8.5, 200 mM EDTA. Stopped reactions were transferred to SAV coated Flash-plates (Perkin Elmer), incubated for 120 min, washed with a plate washer, and then read on the TopCount NXT (1.0 min/well) to measure the amount of methyl histone product formed during the reaction.
# [2] = system: H3K27me3 mark in HeLa cells; assay: H3K27me3 MSD Hela Assay; type: cell-based
# Protocol: Trypsinized HeLa cells were counted and diluted in 10% DMEM (Life Technologies, Cat. #10569) to 5000 cells/75 μL. Seventy-five μL of cells were place in each well of a 96-well flat-bottomed plate and incubated at 37° C. for 4 hours. Twenty-five μL of test compound (at various concentrations) was added to the cells and incubation continued at 37° C. for 96 hours. Media was then removed and the cells rinsed once with ice cold PBS. Forty μL of ice-cold MSD Buffer AT (10 mM HEPES, pH 7.9, 5 mM MgCl2, 0.25M sucrose, Benzonase (1:10000), 1% Triton X-100 supplemented with fresh 1× Protease Inhibitor cocktail and 1 mM 4-(2-Aminoethyl)benzenesulfonyl fluoride hydrochloride (AEBSF)) was added to each well and the plates placed on ice for 30 minutes. Ten μL of 5M NaCl was then added to each well and incubation on ice continued for another 15 minutes. The material in each well was suspended pipetting up and down and then transferred to a new 96 well plate. […]
# The antibody mix was then removed and the wells washed with Blocker A. One hundred-fifty μL of freshly prepared 1×MSD Read Buffer (Meso-Scale Discovery; Cat #R927C-2) was then added to each well and the plates read on a MSD Sector 2400 Plate Reader.
# Data was analyzed using Assay Assistant (Constellation Pharmaceuticals In-house product) and Activity Base (IDBS Ltd, Surrey, UK) template. […] Readout of DMSO wells were used to normalize the data. […]
# Y641N EZH2 = Y641N EZH2 (Homo sapiens, UniProt Q15910, Y641N); assay: Y641N EZH2 assay, H3K27Me2 oligonucleosomes as substrate; type: biochemical
# Protocol: as §1, §2
# Y641N EZH2, sequence (Q15910 whole entry Y641N): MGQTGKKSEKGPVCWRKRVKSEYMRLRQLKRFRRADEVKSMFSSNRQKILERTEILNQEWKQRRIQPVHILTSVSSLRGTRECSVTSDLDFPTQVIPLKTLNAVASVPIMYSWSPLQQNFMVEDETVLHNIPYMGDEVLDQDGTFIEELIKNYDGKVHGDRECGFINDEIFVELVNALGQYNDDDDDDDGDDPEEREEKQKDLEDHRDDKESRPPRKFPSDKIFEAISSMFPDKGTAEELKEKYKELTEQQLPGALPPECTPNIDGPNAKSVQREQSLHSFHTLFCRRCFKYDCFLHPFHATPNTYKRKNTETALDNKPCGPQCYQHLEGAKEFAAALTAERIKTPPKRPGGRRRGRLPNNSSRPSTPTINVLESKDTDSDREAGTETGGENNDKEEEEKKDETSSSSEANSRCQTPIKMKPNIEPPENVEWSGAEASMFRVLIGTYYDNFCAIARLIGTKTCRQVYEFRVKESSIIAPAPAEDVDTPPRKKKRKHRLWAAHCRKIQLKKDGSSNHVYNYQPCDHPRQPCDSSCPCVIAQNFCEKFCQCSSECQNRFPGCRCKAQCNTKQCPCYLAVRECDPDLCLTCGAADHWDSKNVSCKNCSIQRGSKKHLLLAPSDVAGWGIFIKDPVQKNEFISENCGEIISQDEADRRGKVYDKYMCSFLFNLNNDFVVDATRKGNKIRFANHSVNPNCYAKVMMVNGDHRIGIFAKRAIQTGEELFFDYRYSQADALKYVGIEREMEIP
# Y641N EZH2, sequence (O75530 whole entry partner): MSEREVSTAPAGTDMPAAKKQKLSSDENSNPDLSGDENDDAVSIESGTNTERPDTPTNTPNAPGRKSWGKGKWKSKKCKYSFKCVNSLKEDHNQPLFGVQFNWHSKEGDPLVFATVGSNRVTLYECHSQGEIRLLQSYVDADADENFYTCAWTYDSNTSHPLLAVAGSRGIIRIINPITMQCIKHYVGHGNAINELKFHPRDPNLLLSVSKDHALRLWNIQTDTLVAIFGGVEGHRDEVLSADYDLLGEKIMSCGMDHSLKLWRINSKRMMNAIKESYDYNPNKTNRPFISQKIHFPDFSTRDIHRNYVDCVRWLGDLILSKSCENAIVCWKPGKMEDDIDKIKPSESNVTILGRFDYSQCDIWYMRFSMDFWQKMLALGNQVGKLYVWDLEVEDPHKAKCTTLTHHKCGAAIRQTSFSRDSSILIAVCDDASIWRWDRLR
# Y641N EZH2, sequence (Q15022 whole entry partner): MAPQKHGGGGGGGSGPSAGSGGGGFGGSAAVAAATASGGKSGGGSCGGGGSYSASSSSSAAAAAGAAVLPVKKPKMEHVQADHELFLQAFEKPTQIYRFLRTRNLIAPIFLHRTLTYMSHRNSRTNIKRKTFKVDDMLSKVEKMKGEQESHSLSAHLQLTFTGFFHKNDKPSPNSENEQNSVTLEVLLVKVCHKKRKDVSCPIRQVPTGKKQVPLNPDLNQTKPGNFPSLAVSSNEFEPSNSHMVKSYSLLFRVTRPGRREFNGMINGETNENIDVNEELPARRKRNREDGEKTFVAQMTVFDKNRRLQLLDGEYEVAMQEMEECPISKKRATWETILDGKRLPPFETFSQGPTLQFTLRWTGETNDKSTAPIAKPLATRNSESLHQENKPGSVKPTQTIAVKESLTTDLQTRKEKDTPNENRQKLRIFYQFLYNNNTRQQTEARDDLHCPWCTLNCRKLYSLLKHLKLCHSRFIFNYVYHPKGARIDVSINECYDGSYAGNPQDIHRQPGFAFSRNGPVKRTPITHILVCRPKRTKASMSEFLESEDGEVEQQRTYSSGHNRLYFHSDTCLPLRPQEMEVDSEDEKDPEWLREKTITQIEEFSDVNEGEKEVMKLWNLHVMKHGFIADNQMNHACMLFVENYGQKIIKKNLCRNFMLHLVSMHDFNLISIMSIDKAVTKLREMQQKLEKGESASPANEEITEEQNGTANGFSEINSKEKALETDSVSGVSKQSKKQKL
# EZH2, sequence (Q15910 whole entry): as the sequence (Q15910 whole entry Y641N) above, with N641Y counted along it
# EZH2, sequence (O75530 whole entry partner): as the sequence (O75530 whole entry partner) above
# EZH2, sequence (Q15022 whole entry partner): as the sequence (Q15022 whole entry partner) above
compound,measurement,setting,value
"COc1cc(C)[nH]c(=O)c1CNC(=O)c1c(C)n(C(C)C2CCC(F)(F)CC2)c2ccccc12 (racemic) [Compound 304, (±)-1-(1-(4,4-difluorocyclohexyl)ethyl)-N-((4-methoxy-6-methyl-2-oxo-1,2-dihydropyridin-3-yl)methyl)-2-methyl-1H-indole-3-carboxamide]",EC50,[1]; Homo sapiens,< 400 nM
same,IC50,"EZH2; EZH2 IC50, rPRC2, biotinylated oligonucleosomes",< 100 nM
same,EC50,[2]; Homo sapiens,< 400 nM
same,IC50,Y641N EZH2,< 100 nM
"CCS(=O)(=O)N1CCC(C(C)n2c(C)c(C(=O)NCc3c(OC)cc(C)[nH]c3=O)c3ccccc32)CC1 (single isomer, unassigned) [Compound 345, (R or S)-1-(1-(1-(ethylsulfonyl)piperidin-4-yl)ethyl)-N-((4-methoxy-6-methyl-2-oxo-1,2-dihydropyridin-3-yl)methyl)-2-methyl-1H-indole-3-carboxamide]",EC50,[1]; Homo sapiens,< 400 nM
COc1cc(C)[nH]c(=O)c1CNC(=O)c1c(C)n(C(C)C2CCCNC2)c2ccccc12 (stereo not drawn) [Compound 315],EC50,[2],> 10000 nM
"(R or S)-1-(1-(4-(isopropylsulfonyl)cyclohexyl)ethyl)-N-((4-methoxy-6-methyl-2-oxo-1,2-dihydropyridin-3-yl)methyl)-2-methyl-1H-indole-3-carboxamide [Compound 355]",EC50,[1],< 400 nM
same,IC50,"EZH2; rPRC2, biotinylated oligonucleosomes, read-out: EZH2 IC50",< 100 nM
same,IC50,"Y641N EZH2; Y641N EZH2 mutant enzyme, H3K27Me2 oligonucleosomes, read-out: Y641N EZH2 IC50",< 100 nM
